Key:
[1] = tested on: Influenza A Virus H1N1v strain A/Regensburg/D6/09 (H1N1v); type: cell-based
[2] = tested on: VeroE6 cells

Compound | Dilution at which PFU reduction reached the detection limit [1] | Total GRFT concentration at which PFU reduction reached the detection limit [1] | PFU reduction in virus infected cells ([1]; A549 cells, different dilutions/concentrations, n=3 per reading point) | Toxic effect on VeroE6 cell viability compared to mock control [2] | Effect on VeroE6 cell viability compared to mock control [2]
Griffithsin [unencapsulated GRFT] | did not reach the detection limit at 1:2 dilution | > 1.325 mg/mL | concentration dependent PFU reduction | no specific toxic effect | –
CO[C@H]1C[C@@H]2CC[C@@H](C)[C@@](O)(O2)C(=O)C(=O)N2CCCC[C@H]2C(=O)O[C@H]([C@H](C)C[C@@H]2CC[C@@H](O)[C@H](OC)C2)CC(=O)[C@H](C)/C=C(\C)[C@@H](O)[C@@H](OC)C(=O)[C@H](C)C[C@H](C)/C=C/C=C/C=C/1C [Rapamycin, reference compound] | – | – | – | – | slightly decreased the viability of cells
